Reference: patent US12263248B2, “Compounds and compositions for intracellular delivery of therapeutic agents” (ModernaTX, Inc., priority 2018, dated 2025)

Assays:
[1] = Particle size and polydispersity index of nanoparticle compositions (Zetasizer Nano ZS); type: physicochemical
Method in brief: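 In 1×PBS, the compositions were sized on a Zetasizer Nano ZS, which also reported their polydispersity index.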

[2] = Encapsulation efficiency of RNA (QUANT-IT RIBOGREEN RNA assay); type: physicochemical; conditions: for % EE: Table 1D, for subcutaneous administration, # formulated with hEPO mRNA
Method in brief: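 RiboGreen fluorescence (ex ~480, em ~520 nm) compared between intact samples and Triton X-100-lysed samples after 15 min at 37 °C in TE buffer, pH 7.5. Percent free RNA is the blank-corrected intact/disrupted ratio.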

[3] = Apparent (surface) pKa of the LNP formulation (TNS assay); type: physicochemical; conditions: for pKa: Table 1A
Method in brief: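 LNP (0.04 mg/mL mRNA) mixed with TNS reagent in 21 buffers spanning about pH 3-12, in triplicate; fluorescence plotted against pH as sigmoidal curve. Apparent pKa taken as […] curve inflection point; validated in 1× PBS and 20 mM Tris w/8% sucrose.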

[4] = test system: luciferase (Luc) mRNA; assay: Luc expression, whole body bioluminescence after intravenous administration to mice; type: in vivo; conditions: for 6 h BLI Lipid/MC3: Table 3E; for 6 h BLI Lipid/MC3 / Lipid/MC3 AUC / AUC (p/s * h) / Novel lipid/MC3 ratio, 6 hr. timepoint, i.v.: intravenous; for Lipid/MC3 AUC / AUC (p/s * h): Table 3D; for AUC (p/s * h): Luc; for Novel lipid/MC3 ratio, 6 hr. timepoint, i.v.: luciferase, relative to MC3, Table 3G; for Total Flux 3 hours / Total Flux 6 hours / Total Flux 24 hours: mice, i.v., 0.5 mg/kg, Luc mRNA
Method in brief: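 Luc mRNA nanoparticle formulations given intravenously to mice (n=6) at 0.5 mg/kg; whole-body bioluminescence imaged at 3, 6 and 24 h. CD-1 mice received IP D-luciferin (200 μL of 15 mg/mL) 15 min before imaging; total flux quantified by region of interest.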

[5] = Lipid clearance: lipid level in mouse liver tissue (LC-MS/MS); type: in vivo; conditions: for % Remaining dose at 6 h / % Remaining dose at 24 h: Table 3E, mouse liver; for % Dose Remaining in Liver 6 h: Table 3D, intravenous
[6] = test system: hEPO mRNA; assay: hEPO expression after subcutaneous administration to mice; type: in vivo, female CD-1 mice; conditions: for hEPO expression Lipid/Compound 18 ratio, 6 hr. / hEPO expression Lipid/Compound 18 ratio, AUC: 0.5 mpk
Description: The effect of the lipids of the disclosure on protein expression upon subcutaneous administration was studied. Formulations containing lipids of the disclosure and an mRNA expressing luciferase or hEPO were administered subcutaneously to female CD-1 mice at 0.5 mpk. Expression levels were obtained via whole body luminescent imaging (BLI) at 3, 6 and 24 hours after injection and expression levels in liver, spleen and at the injection site were evaluated ex vivo after 24 hours. […] See also Tables 35 and 36, and FIGS. 19 and 27.
Table 36 summarizes the hEPO expression levels using various nanoparticle compositions of the disclosure as compared to the hEPO expression level using a formulation containing MC3 or Compound 18, following subcutaneous administration, as described above.

[7] = test system: hEPO mRNA; assay: hEPO expression after intravenous administration to rats; type: in vivo, rat; conditions: Table 19B
Description: The expression of hEPO and cytokine induction in rats intravenously administered a nanoparticle composition at a dose of 2.0 mpk was measured at 6 h.
(§1) The expression of hEPO in rats intravenously administered a nanoparticle composition at a dose of 0.2 mpk or 2.0 mpk was measured at 6 hours. Table 16 summarize the ratio of hEPO expression levels using various nanoparticle compositions as compared to the hEPO expression level using MC3 formulation and the lipid levels in the liver measured 48 hours after administration, as described above. Tables 17 and 18 summarize the lipid levels in the liver and spleen measured 48 hours after administration of Compounds 28, 33, 53, and 54. Liver and spleen levels represent the average values calculated for 3 rats in each group. As is shown in Tables 17 and 18, less than 10% of Compounds 28, 33, 53, and 54 remained in the liver after 48 hours, while greater than 60% of MC3 remained.
The expression of hEPO induced by intravenous administration to rats of nanoparticle compositions at various doses was measured at 2, 4, 6, 8, 24, and 48 hour time points. FIGS. 3-6 respectively summarize the hEPO expression measured upon intravenous administration of formulations including Compounds 26, 18, 25, and MC3 to rat at various doses. The lipid levels of Compound 26 in the liver after 48 hours were about 19%.
(§2) 005781 The expression of hEPO and lipid levels in the liver and spleen in rats intravenously administered a nanoparticle composition at a dose of 0.2 mpk was measured at various time points. Compounds 18 and 25 were selected for comparison with MC3. Lipids were formulated according to the standard MC3 formulation described above. Rats were administered intravenously a single 0.2 mpk dose and expression monitored at 0.25, 0.5, 1, 2, 4, 8, 24, and 48 hours after administration.
Blood collection and analysis for hEPO. Blood was collected from mice or rats via the tail vein and hEPO concentrations were determined using a hEPO ELISA assay.

[8] = Residual lipid levels in rat liver and spleen (UPLC-MS); type: in vivo; conditions: Table 19B, liver, 24 h
Description: At 48 h liver tissue was harvested for lipid quantification. To pre-weighed tissues, Milli-Q water was added (900 μL water per 100 mg tissue). Tissues were homogenized using an Omni probe homogenizer until uniform. 50 μL of samples and matrix calibration standards were aliquoted into a 96-well plate. 50 μL of blank matrix for matrix blanks and control blanks were aliquoted. 400 μL is spiking solution were manually added to all samples except matrix blanks. 400 μL of 50:50 ACN:IPA were manually added to matrix blanks. The plate was covered and the samples vortexed and centrifuged for 5 minutes at >3000 rpm. 200 μL of the samples were transferred into a clean 96-well plate for analysis. Samples were analyzed on a Waters Acquity UPLC using a Higgins Analytical Clipeus C8 column ([…], 30×2.1 mm) and a gradient of either 70-95% or 60-95% (Mobile Phase A: 5 mM ammonium formate in 50:50:1 H2O:MeOH:formic acid; Mobile Phase B: 5 mM ammonium formate in 100:1 MeOH:formic acid) over 1.3 min at 1.2 mL/min (column temperature 55° C.). Detection was based on electrospray ionization (ESI) in positive mode using a Sciex API5500 Mass Spectrometer.
as §1, §2

[9] = test system: luciferase (Luc) mRNA; assay: Luc expression in liver, lung, spleen and femur 6 hours after intravenous administration; type: in vivo; conditions: mice, 0.5 mpk; for Total Flux Liver / Total Flux Lung / Total Flux Spleen: intravenous
Method in brief: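 LNP-formulated mRNA given IV to mice (n=3) at 0.5 mpk; at 6 h, bioluminescence imaged ex vivo 15 min after IP D-luciferin (15 mg/mL, 200 μL), organs imaged within 25 min. Values are total flux by region of interest.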

[10] = Table 1A, lipid:DSPC:cholesterol:PEG-DMG 50:10:38.5:1.5 mol %
[11] = Table 1D, for subcutaneous administration, # formulated with hEPO mRNA
[12] = Table 1B, formulated with hEPO mRNA
[13] = second column (head also says 6 h)

Row | SMILES | PDI ([1]; Table 1A) | Size (nm) [1, 10] [nm] | PDI [1, 11] | Size (nm) [1, 11] [nm] | EE (%) ([2]; Table 1A) | % EE [2] [%] | pKa [3] | % Remaining dose at 6 h [5] [%] | % Remaining dose at 24 h [5] [%] | 6 h BLI Lipid/MC3 [4] | hEPO expression Lipid/Compound 18 ratio, 6 hr. [6] | hEPO expression Lipid/Compound 18 ratio, AUC [6] | further results
1 | CCCCCCCCCC(=O)OCCCCCCCN(CCO)CCCCCCCC(=O)OC(CCCCCCCC)CCCCCCCC [Compound 96, 7-((8-(Heptadecan-9-yloxy)-8-oxooctyl)(2-hydroxyethyl)amino)heptyl decanoate] | 0.160 | 120.5 | 0.14 | 82.6 | 79.04 | 94.4 | 6.600 |  |  |  | 1.98 | 1.72 | Lipid/MC3 AUC [4]: 6.3; AUC (p/s * h) [4]: 1.209E+012 p/s * h; Novel lipid/MC3 ratio, 6 hr. timepoint, i.v. [4]: 6.11; Total Flux 3 hours [4]: 4.54E+10; Total Flux 6 hours [4]: 1.05E+11; Total Flux 24 hours [4]: 3.86E+09; % Dose Remaining in Liver 6 h [5, 13]: <1%; % Dose Remaining in Liver 6 h [5]: <1%; Flux in the liver ([9]; i.v., in words): highest; Total Flux Liver [9]: 1.56E+10; Total Flux Lung [9]: 3.43E+07; Total Flux Spleen [9]: 3.39E+08
2 | CCCCCCCCCC(=O)OC(C)CCCCCCN(CCO)CCCCCCCC(=O)OC(CCCCCCCC)CCCCCCCC (stereo not shown) [Compound 98, 8-((8-(Heptadecan-9-yloxy)-8-oxooctyl)(2-hydroxyethyl)amino)octan-2-yl decanoate] |  |  | 0.14 | 74.8 | 94.4 | 93.8 | 6.53 | 26.8 | 14.7 | 3.16 | 0.69 | 0.69 | 
3 | CCCCCCCCCC(=O)OCCCCCCCN(CCO)CCCCCCCOC(=O)C(CCCCCCCC)CCCCCCCC [Compound 151, 7-((7-(Decanoyloxy)heptyl)(2-hydroxyethyl)amino)heptyl 2-octyldecanoate] | 0.140 | 105.7 | 0.13 | 77.6 | 87.86 | 95.4 | 6.593 |  |  |  | 0.73 | 0.71 | Apparent pKa ([3]; Table 3G): 6.59; Lipid/MC3 AUC [4]: 3.7; AUC (p/s * h) [4]: 7.010E+011 p/s * h; Novel lipid/MC3 ratio, 6 hr. timepoint, i.v. [4]: 3.29; Total Flux 3 hours [4]: 5.63E+10; Total Flux 6 hours [4]: 5.68E+10; Total Flux 24 hours [4]: 2.23E+09; % Dose Remaining in Liver 6 h [5, 13]: <1%; % Dose Remaining in Liver 6 h [5]: <1%; Total Flux Liver [9]: 4.72E+09; Total Flux Lung [9]: 9.20E+06; Total Flux Spleen [9]: 9.27E+07

Further lines, with some results ahead:

Row | PDI ([1]; Table 1A) | Size (nm) [1, 10] [nm] | PDI [1, 11] | Size (nm) [1, 11] [nm] | EE (%) ([2]; Table 1A) | % EE [2] [%] | pKa [3] | % Remaining dose at 6 h [5] [%] | % Remaining dose at 24 h [5] [%] | SMILES | 6 h BLI Lipid/MC3 [4] | hEPO expression Lipid/Compound 18 ratio, 6 hr. [6] | hEPO expression Lipid/Compound 18 ratio, AUC [6] | further results
4 | 0.14 | 84.6 | 0.14 | 74.3 | 92.9 | 93.5 | 6.50 | 29.1 | 12.7 | CCCCCCCCCC(=O)OC(C)CCCCCCN(CCO)CCCCCCCOC(=O)C(CCCCCCCC)CCCCCCCC (stereo not shown) [Compound 165, 7-((7-(Decanoyloxy)octyl)(2-hydroxyethyl)amino)heptyl 2-octyldecanoate] | 2.12 | 0.63 | 0.64 | 
5 | 0.11 | 66.9 | 0.13 | 87.0 | 97.81 | 97.5 |  |  |  | CCCCCCCCCOC(=O)CCCCCCCN(CCCCCCCC(=O)OC(CCCCCCCC)CCCCCCCC)CCCN/C(=N/S(C)(=O)=O)N(C)C [Compound 233, Heptadecan-9-yl (Z)-8-((3-(3,3-dimethyl-2-(methylsulfonyl)guanidino)propyl)(8-(nonyloxy)-8-oxooctyl)amino)octanoate] |  |  |  | PDI [1, 12]: 0.21; Size (nm) [1, 12]: 93.7 nm; EE (%) [2, 12]: 97.6%; AUC (hEPO) [7]: 129000 pg·h/mL; Lipid/MC3 ([hEPO] ratio) ([7]; relative to MC3): 0.00664; Lipid/MC3 AUC ([7]; relative to MC3): 0.01; [hEPO] ([7]; species, dose and time not given): 9800 pg/mL; % dose remaining, liver, 24 h [8]: 0.07%; Novel lipid/MC3 expression ratio, 6 hr. time point, s.c. hEPO 0.5 mpk ([6]; relative to MC3): 0.03
6 | 0.10 | 88.3 | 0.10 | 78.0 | 93.2 | 92.8 | 6.41 | 34.8 | 19.4 | CCCCCCCCCOC(=O)C(C)CCCCCCN(CCO)CCCCCCCOC(=O)C(CCCCCCCC)CCCCCCCC (stereo not shown) [Compound 163, 7-((2-Hydroxyethyl)(7-methyl-8-(nonyloxy)-8-oxooctyl)amino)heptyl 2-octyldecanoate] | 3.45 | 0.99 | 0.96 | 
7 | 0.13 | 84.5 | 0.08 | 75.7 | 91.2 | 94.1 | 6.39 | 39.0 | 26.2 | CCCCCCCCCOC(=O)C(C)CCCCCCN(CCO)CCCCCCCC(=O)OC(CCCCCCCC)CCCCCCCC (stereo not shown) [Compound 164, Nonyl 8-((8-(heptadecan-9-yloxy)-8-oxooctyl)(2-hydroxyethyl)amino)-2-methyloctanoate] | 1.24 | 0.50 | 0.56 | 
